Here are results for five molecules from patent US10399931B2, “Octahydroanthracene compound, preparation method and application thereof” (SHANDONG XINHUA PHARMACEUTICAL CO., LTD., priority 2016, dated 2019).

In data set [1] the test system is APP/PS1 transgenic mice. As to the kind of experiment: Morris water maze test (oriented navigation and probe test). The class given is in vivo. The following applies: 100 mg/kg. As for the experimental part: The drugs were administered three days after the adaptive feeding. Peanut oil was used as the solvent. The drug was intragastric administered once a day for 15 days. On the 6th to 9th day after the administration, the new object identification test was performed. On the 10th day, the Y-maze test was performed. On the 11th to 15th day, the Morris water maze test was performed to determine the improvement of learning and memory. The administration of the drugs was continued during the behavioral experiment until the animals were sacrificed (16th day).
The experimental device includes a black circular pool with a diameter of 100 cm and a height of 40 cm, and a white platform (safe platform) having a diameter of about 10 cm. The location of the safe platform could be moved. Morris Water Maze Video Detection and Analysis System was provided by the Institute of Materia Medica, China Academy of Medical Sciences. One day before the experiment, water was injected into the black circular pool (water temperature 22±1° C.), and white pigment was added to mix uniformly. The water surface was usually about 1 cm higher than the top of the safe platform. The pool was divided into four quadrants I, II, III and IV, and the safe platform was usually placed in the middle of the quadrant IV. The experiment was divided into two parts: (1) Oriented navigation: the animal grouping was input into a computer software in advance. The position of the safe platform was kept unchanged during the experiment. During the test, the experimental animal facing the pool wall was placed in the water from different inlets, and the computer simultaneously collected data and recorded the time to find the safe platform (escape latency). Data collection automatically stopped when the animal stayed on the safe platform for 10 s. The data acquisition time of the mouse was 60 s. If the animal could not find the safe platform within the specified time, the escape latency was recorded as 60 s. At the same time, the operator induced the animal to reach the safe platform and stay for 10 s. The animal was trained twice a day for 4 consecutive days. (2) Probe test: after the oriented navigation test is completed, the safe platform is removed and the animal was placed in the pool free to explore for 60 s. The camera system automatically recorded the time and distance of the experimental animal swimming in the quadrant of the safe platform within the specified time and the number of times passing through the location of the safe platform.

The test system of data set [2] is APP/PS1 transgenic mice. As to the kind of experiment: Nesting experiment. The following applies: 100 mg/kg, at 12 h. It counts as in vivo. The source says: Each mouse was separately housed in a cage. On the first day of the test, two pieces of cotton (5 cm×5 cm) were placed in the cage. […]
Data set [3] has as its system Human leukemia HL60 cells. Kind of data set: MTT assay, proliferation of human leukemia HL60 cells. The class given is cell-based. Conditions: for IC50: read-out: IC50 against HL60 cells. The procedure: (§1) The survival rate of cells was determined by MTT assay, which is based on the metabolic reduction of 3-(4,5-dimethyl-2thiahiazoyl)-3,5-di-phenyl-tetrazolium bromide (MTT) by viable cells. MTT is a yellow compound, a dye that accepts hydrogen ion, which can act on the respiratory chain in the mitochondria of viable cells. Under the action of succinate dehydrogenase and cytochrome C, the tetrazolium ring was cleaved to form blue Formazan crystals, and the amount of Formazan crystals generated was only proportional to the number of the viable cells. The enzymes disappeared in dead cells, so Formazan crystals could not be dissolved in MTT solution containing 20% sodium dodecyl sulfate (pH 4.7).
(§2) The cells in the logarithmic growth phase were selected and adjusted to an appropriate cell density, seeded in a 96-well plate, 100 μl/well, and cultured in a 37° C., 5% CO2 incubator. The cells were allowed to adhere overnight, then the culture medium was replaced and the drug was added to cultivate for 48 h. A blank control group, a drug administration group and a positive control group were set, with four repeats in each group.
(§3) After 48 h of drug treatment, the cells were incubated with 0.25 mg/ml MTT at 37° C. for 3-4 h, and 100 μl of dimethyl sulfoxide (DMSO) was added to each well after aspirating the culture solution.
A general note: Formazan colour is commonly taken as a measure of viable cells.

Data set [4] relates to Human cutaneous T-cell lymphoma Hut102 cells. As to the kind of experiment: MTT assay, proliferation of human cutaneous T-cell lymphoma Hut102 cells. The class given is cell-based. The procedure: as §1, §2, §3
In a further data set the test system is RXR. Kind of data set: Verification of RXR target, dual-luciferase reporter in transfected 293T cells. The class given is cell-based, Human. The following applies: 20 nM, 48 h; for Relative activity (RXR): relative to CON = 1; for Flu (firefly luciferase signal) / Flu/Rlu / Rlu (Renilla luciferase signal): transfected 293T cells.
For the next data set, the system named is HDAC. Kind of data set: Verification of HDAC target, HDAC fluorometric activity assay on A549 cell lysate. The following applies: 20 μM, Mean.
The mark [5] stands for this setting: Homo sapiens, HL-60, read-out: Inhibitive rate (%) against HL60 cells.
Setting [6] is: Homo sapiens, HL-60, 0.01 μmol/L, Mean ± SE, read-out: Inhibitive rate (%) against HL60 cells.
Where [7] appears, read: Homo sapiens, HL-60, 0.1 μmol/L, Mean ± SE, read-out: Inhibitive rate (%) against HL60 cells.
Where [8] appears, read: Homo sapiens, HL-60, 1 μmol/L, Mean ± SE, read-out: Inhibitive rate (%) against HL60 cells.
[9] abbreviates: Homo sapiens, HL-60, 10 μmol/L (rescreening), Mean ± SE, read-out: Inhibitive rate (%) against HL60 cells.
Where [10] appears, read: Homo sapiens, HL-60, 48 h, 10 μM, 48 h, Mean ± SE, read-out: Inhibitive rate (%) against HL60 cells.
Where [11] appears, read: Homo sapiens, HL-60, 48 h, MTT, 48 h.
[12] abbreviates: HuT-102, 10 μM, Mean ± SE, read-out: Inhibitive rate (%) against Hut102 cells.

Structures are written as SMILES. Where two headings read alike, the source gives them in different places.

Experimental for HDAC: All the compounds were prepared into mother liquors with the same concentration (100 mmol/L) and stored at a temperature of −20° C. […] The DMSO sample was tested at a final concentration of 1%.
A substrate containing an acetylated lysine chain was added to the sample (cell lysate buffer), and the active HDAC in the sample deacetylated the lysine chain on the substrate to activate the substrate. Further, a lysine luminescent reagent is added to generate fluorescence, and the signal was recorded by a microplate reader to indicate the activity of HDAC in the sample.
2) Detection Method • a) Dissolving 50 μg untreated A549 cell lysate in 85 μL (final volume) ddH2O. For the positive blank group, adding 2 μL HeLA nuclear extract first, following by adding 83 μL ddH2O. In the negative blank group, by adding 2 μL Trichostatin A and 83 μL ddH2O. • b) Adding 10 μL 10× buffer to each well. • c) Adding 5 μL HDAC fluorogenic substrate to each well, and adding the drug to make the final concentration reach the set concentration, mixing well, and incubating at 37° C. for 30 min. • d) Adding 10 μL lysine developer, mixing well, then stopping the reaction, incubating for 30 min at 37° C. • e) Detecting the fluorescence value by the microplate reader (condition: emission wavelength/excitation wavelength is 350-380/440-460 nm).

As usually defined, the IC50 is the midpoint of a concentration-inhibition curve. As for `C=C(c1ccc(C(=O)O)cc1)c1cc2c(cc1C)C(C)(C)CCC2(C)C` [BEXA, bexarotene, reference compound], in the data set on APP/PS1 transgenic mice [1] (third and fourth days of training), the “Escape latency vs model group” value is “significantly reduced”. Besides, in the data set with APP/PS1 transgenic mice [1] (probe test), the “Number of times traversing the safe platform vs model group” value is reported as “significantly increased”, the “Percentage of the swimming distance in the target quadrant vs model group” value is on record as “significantly increased” and the “Swimming time in the target quadrant vs model group” value was “significantly increased”. The “Nesting ability vs model group” value in the data set on APP/PS1 transgenic mice [2] is given as “significantly increased”. Also, the IC50 in data set [3] (Homo sapiens, HL-60, 48 h) came out at 6.31 ± 0.7 µM. The inhibition at 10 µM in data set [3] (Homo sapiens, HL-60, 48 h, read-out: Inhibitive rate (%) against HL60 cells) was determined as 4 ± 1.14%. Also, in data set [3] (setting [5]), the inhibition at 0.01 µM is 16.5 ± 1.66%, the inhibition at 0.1 µM came to 15.1 ± 1.44%, the inhibition at 1 µM was found to be 65.5 ± 1.72% and the inhibition at 10 µM came to 80.88 ± 0.63%. For the same molecule, the inhibition at 10 µM in data set [4] (HuT-102, read-out: Inhibitive rate (%) against Hut102 cells) amounted to 6.41 ± 4.1%.

With `CC1(C)CCC(C)(C)c2c1cc1c(c2NC(=O)c2ccc(C(=O)NCCN)cc2)C(C)(C)CCC1(C)C` [OAA-6, N-(2-amino) ethyl-4-[(1,1,4,4,5,5,8,8-octamethyl-1,2,3,4,5,6,7,8-octahydro-9-anthryl)carbamoyl] benzamide], in the data set on RXR, the “Relative activity (RXR)” value is listed as 1.47, the “Flu (firefly luciferase signal)” value was 452598, the Flu/Rlu is on record as 2.59 and the “Rlu (Renilla luciferase signal)” value turned out to be 174827. Further, the inhibition at 0.01 µM in data set [3] (setting [6]) amounted to 1.2 ± 0.27%. The inhibition at 0.1 µM in data set [3] (setting [7]) worked out at 13.4 ± 1.5%. Moreover, the inhibition at 1 µM in data set [3] (setting [8]) is 76.73 ± 0.07%. The inhibition at 10 µM in data set [3] (setting [9]) worked out at 79.74 ± 0.46%. Also, the inhibition at 10 µM in data set [3] (setting [10]) was above 50%. Besides, the 50% inhibitory concentration (IC50) in data set [3] (setting [11]) was below 10 µM. In data set [3] (MTT, 48 h), the IC50 amounted to 5.63 ± 1.14 µM. Further, in data set [4] (setting [12]), the inhibition at 10 µM is 23.9 ± 1.03%. Moreover, in the data set with HDAC, the “Inhibitive rate of HDAC activity of A549 cells” value (from here on “Inhibitive rate”) was −11.07%.

For orientation: melting point means the temperature, or range, at which the solid turns liquid. `CC1(C)CCC(C)(C)c2c1cc1c(c2NC(=O)c2ccc(NC(=O)NCCO)cc2)C(C)(C)CCC1(C)C` [OAB-17, 1-(2-hydroxy) ethyl-3-{4-[(1,1,4,4,5,5,8,8-octamethyl-1,2,3,4,5,6,7,8-octahydro-9-anthryl)carbamoyl]phenyl} urea] showed a melting point of 284 to 287 °C. For the same molecule, in data set [3] (setting [10]), the inhibition at 10 µM stood at 33.6 ± 0.7%. Moreover, the inhibition at 10 µM in data set [4] (setting [12]) was 9.22 ± 1.29%.

In the case of `CN(C)CCNC(=O)Nc1ccc(C(=O)Nc2c3c(cc4c2C(C)(C)CCC4(C)C)C(C)(C)CCC3(C)C)cc1` [OAB-13, 1-[2-(N,N-dimethylamino)]ethyl-3-{4-[(1,1,4,4,5,5,8,8-octamethyl-1,2,3,4,5,6,7,8-octahydro-9-anthryl)carbamoyl]phenyl} urea], in the data set with RXR, the “Relative activity (RXR)” value is on record as 1.11, the “Flu (firefly luciferase signal)” value is 76228, the Flu/Rlu was 1.95 and the “Rlu (Renilla luciferase signal)” value was determined as 39025. Further, in data set [3] (setting [6]), the inhibition at 0.01 µM stood at 12.6 ± 0.7%. The inhibition at 0.1 µM in data set [3] (setting [7]) amounted to 11.4 ± 0.88%. In addition, the inhibition at 1 µM in data set [3] (setting [8]) is 53.3 ± 1.22%. In addition, the inhibition at 10 µM in data set [3] (setting [9]) was determined as 79.93 ± 0.16%. Also, the IC50 in data set [3] (setting [11]) is below 10 µM. For the same molecule, the IC50 in data set [3] (MTT, 48 h) amounted to 6.65 ± 2.93 µM. Also, the inhibition at 10 µM in data set [4] (setting [12]) was 39.8 ± 0.81%. In addition, the “Inhibitive rate” value in the data set with HDAC is reported as 3.19%.

For the molecule `CCN(CC)CCNC(=O)Nc1ccc(C(=O)Nc2c3c(cc4c2C(C)(C)CCC4(C)C)C(C)(C)CCC3(C)C)cc1` [OAB-12, 1-[2-(N,N-diethylamino)]ethyl-3-{4-[(1,1,4,4,5,5,8,8-octamethyl-1,2,3,4,5,6,7,8-octahydro-9-anthryl)carbamoyl]phenyl} urea], in the data set on RXR, the “Relative activity (RXR)” value is 0.85, the “Flu (firefly luciferase signal)” value turned out to be 4013, the Flu/Rlu was determined as 1.49 and the “Rlu (Renilla luciferase signal)” value amounted to 2686. Further, the inhibition at 0.01 µM in data set [3] (setting [6]) amounted to 8.96 ± 1.45%. Moreover, the inhibition at 0.1 µM in data set [3] (setting [7]) is 11.8 ± 1.33%. Also, in data set [3] (setting [8]), the inhibition at 1 µM is 73 ± 1.31%. In addition, the inhibition at 10 µM in data set [3] (setting [9]) was determined as 78.94 ± 0.42%. In data set [4] (setting [12]), the inhibition at 10 µM worked out at 43.7 ± 3.98%. Besides, the “Inhibitive rate” value in the data set on HDAC is 4.17%.
